Source: US20190307843A1, “SINGLE DOSE METHODS FOR PREVENTING AND TREATING FUNGAL INFECTIONS” (Cidara Therapeutics, Inc., priority 2016, published 2019)
Starred links: 1 amine or outer side, 2 acyl side, 3 side chain; linkers in the order of their positions; H or OH if unused. Positions of bridges follow the written chain, without caps; N, C: chain ends. Non-standard residues stand in square brackets, D forms with d. Residues, ends and D or L forms follow the SMILES beside them. *: point of attachment. Orn(4R-OH,5R-OCH2CH2NMe3+) = C[N+](C)(C)CCO[C@@H](N[*:3])[C@H](O)C[C@H](N[*:1])C(=O)[*:2]; pTerphenylCO(4''-OnC5H11) = CCCCCOc1ccc(-c2ccc(-c3ccc(C(=O)*)cc3)cc2)cc1; hTyr(3S-OH,4S-OH) = N[C@H](C(=O)O)[C@H](O)[C@@H](O)c1ccc(O)cc1; Pro(3S-OH,4S-Me) = C[C@H]1CN[C@H](C(=O)O)[C@H]1O; Hyp = O=C(O)[C@@H]1C[C@@H](O)CN1

Tests used:
[1] = system: C. auris; test: Murine model of disseminated candidiasis, C. auris infection, kidney CFU and survival; format: in vivo, Candida auris; settings: CD101 20 mg/kg IP
[2] = system: A. fumigatus strain AF293; test: Murine model of pulmonary aspergillosis (Example 13), survival
[3] = Pharmacokinetic profile in mice following a 10-mg/kg subcutaneous dose; format: in vivo; settings: mouse, plasma, sc
[4] = system: A. fumigatus AF293; test: Murine model of pulmonary aspergillosis (Example 19), survival; settings: for survival time post infection, range / Mean Survival / Median Survival: 1 day pre-infection; for mice surviving to the end of the study: 6/treatment group, 10 days
[5] = system: C. albicans strain 529L; test: Rat model of vulvovaginal candidiasis, vaginal lavage and tissue burden; format: in vivo, Candida albicans; settings: 5 mg/kg SC Dosed Once
[6] = CD101 5mpk Day −3 vs. CD101 5mpk Day −5
[7] = CD101 5mpk Day −5 vs. CD101 10mpk Day −5
[8] = CD101 5mpk Day −5 vs. CD101 20mpk Day −5
[9] = CD101 20mpk Day −1 vs. CD101 20mpk Day −3
[10] = Micafungin 2mpk Day −1 vs. CD101 10mpk Day −1
[11] = Micafungin 2mpk Day −1 vs. CD101 20mpk Day −1
[12] = CD101 20 mg/kg IP once, 20 mg/kg
[13] = CD101 60 mg/kg IP once, 60 mg/kg
[14] = lavage Day 1 post infection, pre-treatment

CCCCCOc1ccc(-c2ccc(-c3ccc(C(=O)N[C@H]4C[C@@H](O)[C@@H](OCC[N+](C)(C)C)NC(=O)[C@@H]5[C@@H](O)[C@@H](C)CN5C(=O)[C@H]([C@@H](C)O)NC(=O)[C@H]([C@H](O)[C@@H](O)c5ccc(O)cc5)NC(=O)[C@@H]5C[C@@H](O)CN5C(=O)[C@H]([C@@H](C)O)NC4=O)cc3)cc2)cc1 [CD101] ({pTerphenylCO(4''-OnC5H11)}-[Orn(4R-OH,5R-OCH2CH2NMe3+)]T[Hyp][hTyr(3S-OH,4S-OH)]T[Pro(3S-OH,4S-Me)]; lactam 1-C)
percent survival at the end of the study ([1]; 2 doses, Day 14): 80% | average reduction in kidney CFU compared to fluconazole, amphotericin B, and vehicle treated groups ([1]; Day 1 and Day 4, Day 8): 3 log | Mean Survival ([2]; CD101 5 mg/kg IP Day 0): 67.8 h | Median Survival ([2]; CD101 5 mg/kg IP Day 0): 64.6 h | Mean Survival ([2]; CD101 5 mg/kg IP Day −1): 72.1 h | Median Survival ([2]; CD101 5 mg/kg IP Day −1): 67.6 h | Mean Survival ([2]; CD101 5 mg/kg IP Day −3): 70.0 h | Median Survival ([2]; CD101 5 mg/kg IP Day −3): 67.7 h | Mean Survival ([2]; CD101 5 mg/kg IP Day −5): 65.3 h | Median Survival ([2]; CD101 5 mg/kg IP Day −5): 65.3 h | Mean Survival ([2]; CD101 10 mg/kg IP Day −1): 121.8 h | Median Survival ([2]; CD101 10 mg/kg IP Day −1): 81.0 h | Mean Survival ([2]; CD101 10 mg/kg IP Day −3): 76.9 h | Median Survival ([2]; CD101 10 mg/kg IP Day −3): 73.4 h | Mean Survival ([2]; CD101 10 mg/kg IP Day −5): 67.2 h | Median Survival ([2]; CD101 10 mg/kg IP Day −5): 65.7 h | Mean Survival ([2]; CD101 20 mg/kg IP Day −1): 155.6 h | Median Survival ([2]; CD101 20 mg/kg IP Day −1): 72.3 h | Mean Survival ([2]; CD101 20 mg/kg IP Day −3): 91.9 h | Median Survival ([2]; CD101 20 mg/kg IP Day −3): 69.8 h | Mean Survival ([2]; CD101 20 mg/kg IP Day −5): 75.5 h | Median Survival ([2]; CD101 20 mg/kg IP Day −5): 69.8 h | Log-Rank test, survival [2, 6]: 0.0183 | Peto-Prentice (Wilcoxon) test, survival [2, 6]: 0.0426 | Log-Rank test, survival [2, 7]: 0.0009 | Peto-Prentice (Wilcoxon) test, survival [2, 7]: 0.0015 | Log-Rank test, survival [2, 8]: 0.0009 | Peto-Prentice (Wilcoxon) test, survival [2, 8]: 0.0015 | Log-Rank test, survival [2, 9]: 0.0387 | Peto-Prentice (Wilcoxon) test, survival [2, 9]: 0.033 | Peto-Prentice (Wilcoxon) test, survival ([2]; Micafungin 2mpk Day −1 vs. CD101 5mpk Day −1): 0.0467 | Log-Rank test, survival [2, 10]: 0.0201 | Peto-Prentice (Wilcoxon) test, survival [2, 10]: 0.0191 | Log-Rank test, survival [2, 11]: 0.0047 | Peto-Prentice (Wilcoxon) test, survival [2, 11]: 0.0067 | Log-Rank test, survival ([2]; Vehicle vs. CD101 20mpk Day −1): NS (0.0533) | Peto-Prentice (Wilcoxon) test, survival ([2]; Vehicle vs. CD101 20mpk Day −1): 0.0465 | half-life [3]: ~25 h | bioavailability ([3]; read-out: absolute bioavailability): ~50% | survival time post infection, range ([4]; CD101 20 mg/kg IP once): 70 to 240 h | Mean Survival [4, 12]: 130.4 h | Median Survival [4, 12]: 74.7 h | mice surviving to the end of the study ([4]; CD101 20 mg/kg IP): Two mice survived to the end of the study | survival time post infection, range ([4]; CD101 60 mg/kg IP once): 73-240 | Mean Survival [4, 13]: 122.7 h | Median Survival [4, 13]: 88.7 h | mice surviving to the end of the study ([4]; CD101 60 mg/kg IP): A single mouse survived to the end of the study | survival ([4]; CD101 20 and 60 mg/kg once one day pre-infection): slight increase in survival | Group Geometric mean [5, 14]: 9.11 × 10^2 CFU/mL | Log Group Geometric mean [5, 14]: 2.96 CFU/mL | Log reduction from vehicle control [5, 14]: −0.52 CFU/mL | Group Geometric mean ([5]; lavage Day 2 post infection): 3.34 × 10^2 CFU/mL | Log Group Geometric mean ([5]; lavage Day 2 post infection): 2.52 CFU/mL | Log reduction from vehicle control ([5]; lavage Day 2 post infection): 1.17 CFU/mL | Group Geometric mean ([5]; lavage Day 3 post infection): 1.21 × 10^2 CFU/mL | Log Group Geometric mean ([5]; lavage Day 3 post infection): 2.08 CFU/mL | Log reduction from vehicle control ([5]; lavage Day 3 post infection): 1.49 CFU/mL | Group Geometric mean ([5]; lavage Day 5 post infection): 1.70 × 10^3 CFU/mL | Log Group Geometric mean ([5]; lavage Day 5 post infection): 3.23 CFU/mL | Log reduction from vehicle control ([5]; lavage Day 5 post infection): 0.99 CFU/mL
